Values after ≈ are worked out from the molar mass of the structure shown.
Columns and labels:
[1] = system: Proteus mirabilis; experiment: microbe, parasite or virus in culture
[2] = system: Staphylococcus aureus; experiment: microbe, parasite or virus in culture; settings: ATCC 29213
[3] = target: T1, Bifunctional epoxide hydrolase 2 (Homo sapiens, UniProt P34913)
T1 sequence (P34913 whole entry): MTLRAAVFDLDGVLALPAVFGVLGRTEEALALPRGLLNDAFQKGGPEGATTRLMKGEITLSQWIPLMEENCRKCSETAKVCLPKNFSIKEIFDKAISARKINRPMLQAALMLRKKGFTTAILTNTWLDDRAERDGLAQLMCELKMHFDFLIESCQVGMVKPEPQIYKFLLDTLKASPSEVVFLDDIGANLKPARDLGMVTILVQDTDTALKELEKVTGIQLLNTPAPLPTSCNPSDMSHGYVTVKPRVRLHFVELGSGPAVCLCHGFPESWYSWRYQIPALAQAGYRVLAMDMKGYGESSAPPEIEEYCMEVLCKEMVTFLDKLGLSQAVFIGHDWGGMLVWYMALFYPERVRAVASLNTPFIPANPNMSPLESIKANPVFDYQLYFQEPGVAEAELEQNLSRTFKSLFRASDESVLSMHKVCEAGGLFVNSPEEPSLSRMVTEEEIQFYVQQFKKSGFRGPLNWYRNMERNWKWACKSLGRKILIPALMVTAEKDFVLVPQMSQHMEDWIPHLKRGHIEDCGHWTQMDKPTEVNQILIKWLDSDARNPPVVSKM

[4] = system: Streptococcus pyogenes; experiment: microbe, parasite or virus in culture
[5] = system: Bacillus anthracis; experiment: microbe, parasite or virus in culture; settings: Sterne
[6] = system: Burkholderia cepacia; experiment: microbe, parasite or virus in culture
[7] = system: Proteus vulgaris; experiment: microbe, parasite or virus in culture
[8] = system: Vero; experiment: cells; settings: Chlorocebus sabaeus, 72 h
[9] = system: Staphylococcus aureus; experiment: microbe, parasite or virus in culture; settings: NRS70
[10] = system: Escherichia coli; experiment: microbe, parasite or virus in culture; settings: K-12
[11] = system: Klebsiella pneumoniae; experiment: microbe, parasite or virus in culture
[12] = system: Acinetobacter; experiment: microbe, parasite or virus in culture
[13] = system: Mycobacterium tuberculosis; experiment: microbe, parasite or virus in culture; settings: H37Rv, 168 h
[14] = system: Streptococcus pneumoniae; experiment: microbe, parasite or virus in culture
[15] = system: Bacillus subtilis; experiment: microbe, parasite or virus in culture
[16] = system: Enterococcus faecalis; experiment: microbe, parasite or virus in culture
[17] = system: Pseudomonas aeruginosa; experiment: microbe, parasite or virus in culture
[18] = buffer, 18 h, pH 7.4

Compound | MIC [1] [µg/mL] | MIC [2] [µg/mL] | IC50 [3] [nM] | MIC [4] [µg/mL] | MIC [5] [µg/mL] | MIC [6] [µg/mL] | MIC [7] [µg/mL] | IC50 [8] [µg/mL] | MIC [9] [µg/mL] | MIC [10] [µg/mL] | MIC [11] [µg/mL] | MIC [12] [µg/mL] | MIC [13] [µg/mL] | MIC [14] [µg/mL] | MIC [15] [µg/mL] | MIC [16] [µg/mL] | MIC [17] [µg/mL] | solubility [18] [µg/mL]
O=C(Nc1nnc(C2CC2)o1)NC1C2CC3CC(C2)CC1C3 (stereo not given) | > 200 | 200 (≈ 661 µM) | 2410 | > 200 | > 200 | 200 (≈ 661 µM) | > 200 | 180 (≈ 595 µM) | > 200 | > 200 | > 200 | > 200 | 3.13 (≈ 10.4 µM) | > 200 | > 200 | > 200 | > 200 | 
Cc1cnc(NC(=O)NC23CC4CC(CC(C4)C2)C3)s1 | > 200 | > 200 | 116 | > 200 | > 200 | > 200 | > 200 | 23 (≈ 78.9 µM) | 200 (≈ 686 µM) | > 200 | > 200 | > 200 | 3.13 (≈ 10.7 µM) | > 200 | > 200 | 200 (≈ 686 µM) | > 200 | 
CCCn1nc(NC(=O)NC23CC4CC(CC(C4)C2)C3)cc1C | > 200 | > 200 | 751 | > 200 | > 200 | > 200 | > 200 | 26 (≈ 82.2 µM) | > 200 | > 200 | > 200 | > 200 | 1.56 (≈ 4.93 µM) | > 200 | > 200 | > 200 | > 200 | 
Cc1csc(NC(=O)NC23CC4CC(CC(C4)C2)C3)n1 | > 200 | 50 (≈ 172 µM) | 485 | > 200 | > 200 | > 200 | > 200 | 13 (≈ 44.6 µM) | 100 (≈ 343 µM) | > 200 | > 200 | > 200 | 1.56 (≈ 5.35 µM) | 25 (≈ 85.8 µM) | > 200 | > 200 | > 200 | 
Cc1cc(NC(=O)NC23CC4CC(CC(C4)C2)C3)on1 | > 200 | 200 (≈ 726 µM) | 117 | > 200 | > 200 | 100 (≈ 363 µM) | > 200 |  | > 200 | 200 (≈ 726 µM) | > 200 | > 200 | 12.5 (≈ 45.4 µM) | > 200 | > 200 | 100 (≈ 363 µM) | > 200 | 5.5 (≈ 20 µM)
O=C(Nc1nnc(C2CC2)o1)NC12CC3CC(CC(C3)C1)C2 | > 200 | > 200 | 503 | > 200 | 50 (≈ 165 µM) | > 200 | > 200 |  | > 200 | > 200 | > 200 | > 200 | 12.5 (≈ 41.3 µM) | > 200 | 100 (≈ 331 µM) | > 200 | > 200 | 38.3 (≈ 127 µM)
Cn1cc(NC(=O)NC23CC4CC(CC(C4)C2)C3)cn1 | > 200 | > 200 | 488 | > 200 | > 200 | > 200 | > 200 |  | > 200 | > 200 | > 200 | > 200 | 50 (≈ 182 µM) | > 200 | > 200 | > 200 | > 200 | 41.1 (≈ 150 µM)
COc1ccc(NS(=O)(=O)c2ccc(NC(=O)NC34CC5CC(CC(C5)C3)C4)cc2)nn1 | 100 (≈ 219 µM) | 200 (≈ 437 µM) | 7 | > 200 | 50 (≈ 109 µM) | 200 (≈ 437 µM) | 200 (≈ 437 µM) |  | 100 (≈ 219 µM) | 200 (≈ 437 µM) | > 200 | > 200 | 25 (≈ 54.6 µM) | 100 (≈ 219 µM) | 200 (≈ 437 µM) | 200 (≈ 437 µM) | > 200 | 14.1 (≈ 30.8 µM)
O=C(Nc1ccncn1)NC12CC3CC(CC(C3)C1)C2 | > 200 | 100 (≈ 367 µM) | 775 | > 200 | > 200 | 200 (≈ 734 µM) | > 200 |  | > 200 | > 200 | > 200 | > 200 | 25 (≈ 91.8 µM) | 50 (≈ 184 µM) | 50 (≈ 184 µM) | > 200 | > 200 | 15.5 (≈ 56.9 µM)
O=C(Nc1ncco1)NC1C2CC3CC(C2)CC1C3 (stereo not given) | > 200 | > 200 | 46 | > 200 | > 200 | 6.25 (≈ 23.9 µM) | > 200 |  | 200 (≈ 765 µM) | > 200 | > 200 | > 200 | 12.5 (≈ 47.8 µM) | > 200 | > 200 | > 200 | > 200 | 14.9 (≈ 57 µM)
O=C(Nc1ccncc1)NC12CC3CC(CC(C3)C1)C2 | > 200 | > 200 | 174 | > 200 | > 200 | > 200 | > 200 |  | > 200 | > 200 | > 200 | > 200 | 18 (≈ 66.3 µM) | > 200 | > 200 | > 200 | > 200 | 7 (≈ 25.8 µM)
CCn1ccc(NC(=O)NC23CC4CC(CC(C4)C2)C3)n1 | > 200 | > 200 | 884 | 0.78 (≈ 2.7 µM) | 100 (≈ 347 µM) | > 200 | > 200 |  | 200 (≈ 693 µM) | > 200 | > 200 | > 200 | 25 (≈ 86.7 µM) | 200 (≈ 693 µM) | 200 (≈ 693 µM) | > 200 | > 200 | 10.5 (≈ 36.4 µM)
Cc1nnc(NC(=O)NC23CC4CC(CC(C4)C2)C3)o1 | > 200 | > 200 | 595 | > 200 | > 200 | > 200 | > 200 |  | > 200 | > 200 | > 200 | > 200 | 25 (≈ 90.5 µM) | > 200 | > 200 | > 200 | > 200 | 9.77 (≈ 35.4 µM)
Cc1cc(NS(=O)(=O)c2ccc(NC(=O)NC34CC5CC(CC(C5)C3)C4)cc2)no1 | > 200 | > 200 | 292 | > 200 | > 200 | > 200 | > 200 |  | 50 (≈ 116 µM) | > 200 | > 200 | > 200 | 25 (≈ 58.1 µM) | > 200 | > 200 | > 200 | > 200 | 2 (≈ 4.65 µM)
Cc1noc(NS(=O)(=O)c2ccc(NC(=O)NC34CC5CC(CC(C5)C3)C4)cc2)c1C | > 200 | > 200 | 31 | > 200 | > 200 | > 200 | > 200 |  | > 200 | > 200 | > 200 | > 200 | 25 (≈ 56.2 µM) | > 200 | > 200 | > 200 | > 200 | 27.3 (≈ 61.4 µM)

Reference: ChEMBL document CHEMBL2390858, “Design, synthesis and anti-tuberculosis activity of 1-adamantyl-3-heteroaryl ureas with improved in vitro pharmacokinetic properties” (Bioorg Med Chem, 2013)
